Results: patent publication US7901936B2, “Method for stimulating self-renewal of neural stem cells and enhancing neurogenesis” (Albany Medical College, priority 2004, dated 2011)
Starred links: 1 amine or outer side, 2 acyl side, 3 side chain; linkers in the order of their positions; H or OH if unused. Non-standard residues stand in square brackets, D forms with d. Residues, ends and D or L forms follow the SMILES beside them. *: point of attachment. X1 = CC(N[*:1])C(=O)C(F)(F)C(=O)[*:2]; Boc = CC(C)(C)OC(=O)*

What was measured:
[1] = tested on: cortical stem cell clones; assay: Clonal growth of cortical stem cells with added soluble growth factors (without feeder cells); type: cell-based, mouse; settings: for duplication of the effect of endothelial co-culture on clonal growth: factor added at 10-50 ng/ml to serum-free medium with FGF2, no feeder cells
Procedure: Embryonic cerebral cortices and adult SVZ were dissected and dissociated as described (18-20). Single cells were plated into poly-l-lysine-coated 6-well plates (Costar) at clonal density (2000-4000 cells/well) and cultured in basal serum-free medium consisting of DMEM, B27, N2, NAC and 10 ng/ml FGF2 (19,20). To test the effects of soluble growth factors (PDGF, CNTF, TGFβ, IGF1, IL1, IL6, G-CSF, M-CSF, GM-CSF, LIF, BDNF, Steel factor, VEGF or EGF), each factor was added to serum-free medium with FGF2 at a range of 10-50 ng/ml, and clonal growth (cell number and generation of neurons and glia) was assessed (without co-cultured feeder cells). LIF and VEGF were also tested in combination, each added at 10 ng/ml into serum-free medium, with and without FGF2.

[2] = tested on: BPAE co-culture clones (cortical stem cells); assay: Inhibition of Notch activation in endothelial co-cultured cortical stem cell clones; type: cell-based, mouse; settings: BPAE co-culture clones treated for 6 hours, 50 μM, vs DMSO vehicle
Procedure: γ-secretase inhibitor II (Calbiochem, 50 μM) in DMSO was added to co-cultured cells after 4 days for 6 hours. The same amount of DMSO was used as vehicle control. The cells were then fixed and stained for β-tubulin III and double-labelled for Nestin or β-catenin, and the stained cells were quantified.

| Molecule | duplication of the effect of endothelial co-culture on clonal growth [1] | further results |
| --- | --- | --- |
| IL6: soluble growth factor | none duplicated the result we see from endothelial co-cultures |  |
| Steel factor: soluble growth factor | none duplicated the result we see from endothelial co-cultures |  |
| TGFβ | none duplicated the result we see from endothelial co-cultures |  |
| VEGF | Neither factor, alone or in combination, duplicated the effect of endothelial factors |  |
| LIF: soluble growth factor | none duplicated the result we see from endothelial co-cultures |  |
| IGF1: soluble growth factor | none duplicated the result we see from endothelial co-cultures |  |
| FGF2: soluble growth factor in basal serum-free medium | none duplicated the result we see from endothelial co-cultures | neural stem cell proliferation ([1]; FGF2 alone): promotes neural stem cell proliferation; neural stem cell self-renewal ([1]; FGF2 alone): cannot alone maintain their self-renewal |
| GM-CSF: soluble growth factor | none duplicated the result we see from endothelial co-cultures |  |
| EGF: soluble growth factor (NSDSECPLSHDGYCLHDGVCMYIEALDKYACNCVVGYIGERCQYRDLKWWELR; Epidermal growth factor; UniProt P01133 971-1023, looked up) | none duplicated the result we see from endothelial co-cultures |  |
| PDGF | none duplicated the result we see from endothelial co-cultures |  |
| CCC(C)C(NC(=O)C(NC(=O)OC(C)(C)C)C(C)C)C(=O)NC(C)C(=O)C(F)(F)C(=O)NC(C(=O)NC(C(=O)OC)C(C)CC)C(C)C (centres unmarked) [γ-secretase inhibitor II] (Boc-VI[X1]VI-OMe; configuration not given here) |  | β-catenin staining [2]: significantly decreased; β-tubulin-III staining [2]: significantly increased |
